{"source": "patent US20150148234A1", "about": "“HERBICIDE-RESISTANT SUNFLOWER PLANTS WITH MULTIPLE HERBICIDE RESISTANT ALLELES OF AHASL1 AND METHODS OF USE” (NIDERA S.A., priority 2013, published 2015)", "assay_in_all_cases": "metsulfuron whole plant greenhouse test (Example 5)", "assay_type_in_all_cases": "in vivo", "key": {"[1]": {"tested_on": "sunflower cmsGM40xBTSu-R1, A122T/P197L", "details": "14 DAT; for Dry Matter accumulation (DMA) / Mean Height Reduction (PH): percentage of untreated control", "experimental": "(§1) Seeds were sown in Petri dishes and, after germination, plantlets were transplanted into 10 cm pots containing potting media consisting of equal parts of vermiculite, soil, and sand. Plants were grown in the greenhouse under natural light conditions supplemented with 400 W sodium halide lamps to provide a 16 hr daylength. Day/night temperatures were 25 and 20° C., respectively. At the V2-V4 stage (Schneiter & Miller, 1981) 20 plants of each genotype were randomly assigned to each treatment consisting of three metsulfuron methyl doses (0 or no treatment, 5 g ai/ha or a 1× rate, and 10 g ai/ha or a 2× rate). A zero-time biomass determination was also conducted. The experiment was arranged as a randomized complete block design (RCBD) with a full factorial arrangement of treatments and 20 replications (sunflower line×treatment).\n(§2) For the zero-time dried weight determination, ten plants of each genotype were cut at the cotyledonal node on the day of herbicide application and dried at 60° C. for 48 hr. The rest of the plants were maintained for 14 days after herbicide treatment (DAT) and their height, Phytotoxicity Index (PI) and above ground dry biomass were recorded. Height was determined as the distance between the cotyledonal node and the apex of each plant. The above ground biomass data for each line was converted to biomass accumulation after application by subtracting the appropriate average zero-time biomass from each sample. Height and dry biomass were converted to a percentage of the untreated control for each line to allow direct comparisons between groups.\n(§3) The data was subjected to an ANOVA and the means were compared by an LSD test."}, "[2]": {"tested_on": "sunflower cmsGM40xL4, A122T/A122T", "details": "14 DAT; for Dry Matter accumulation (DMA) / Mean Height Reduction (PH): percentage of untreated control", "experimental": "as §1, §2, §3"}, "sunflower line B770, WT": {"tested_on": "sunflower line B770, WT", "details": "14 DAT", "experimental": "as §1, §2, §3"}, "[3]": {"tested_on": "sunflower line BTSu-R1, P197L/P197L", "details": "14 DAT, percentage of untreated control", "experimental": "as §1, §2, §3"}, "[4]": {"tested_on": "sunflower line GM1606, A122T/A122T", "details": "14 DAT; for Dry Matter accumulation (DMA) / Mean Height Reduction (PH): percentage of untreated control", "experimental": "as §1, §2, §3"}, "[5]": {"tested_on": "sunflower line GM40, A122T/A122T", "details": "14 DAT; for Dry Matter accumulation (DMA) / Mean Height Reduction (PH): percentage of untreated control", "experimental": "as §1, §2, §3"}, "[6]": {"tested_on": "sunflower line L4, A122T/A122T", "details": "14 DAT; for Dry Matter accumulation (DMA) / Mean Height Reduction (PH): percentage of untreated control", "experimental": "as §1, §2, §3"}, "[7]": {"details": "2X (10 g ai./ha), percentage of untreated control"}}, "note": "Where “and” joins values, the source holds several entries; their conditions need not be identical. Equal entries are not always repeated. Marks after values point to notes of the source that are not given here."}
{"smiles": "COC(=O)c1ccccc1S(=O)(=O)NC(=O)Nc1nc(C)nc(OC)n1", "note": "[metsulfuron]", "values": [{"measurement": "Phytotoxicity Index (PI) (0-9)", "setting": "[1]; 1X (5g ai./ha)", "result": "0.00 ^a"}, {"measurement": "Dry Matter accumulation (DMA)", "setting": "[1]; 1X (5g ai./ha)", "result": "74.4% and 74.36 ^c %"}, {"measurement": "Mean Height Reduction (PH)", "setting": "[1]; 1X (5g ai./ha)", "result": "77.04 ^b %"}, {"measurement": "Dry Matter accumulation (DMA)", "setting": "[1]; 2X (10 g ai./ha)", "result": "72.66 ^c %"}, {"measurement": "Mean Height Reduction (PH)", "setting": "[1]; 2X (10 g ai./ha)", "result": "62% and 61.99 ^b %"}, {"measurement": "Phytotoxicity Index (PI) (0-9)", "setting": "[2]; 1X (5g ai./ha)", "result": "8.67 ^d"}, {"measurement": "Dry Matter accumulation (DMA)", "setting": "[2]; 1X (5g ai./ha)", "result": "19.90 ^a %"}, {"measurement": "Mean Height Reduction (PH)", "setting": "[2]; 1X (5g ai./ha)", "result": "22.45 ^a %"}, {"measurement": "Phytotoxicity Index (PI) (0-9)", "setting": "[2]; 2X (10 g ai./ha)", "result": "8.82 ^cd"}, {"measurement": "Dry Matter accumulation (DMA)", "setting": "[2]; 2X (10 g ai./ha)", "result": "18.23 ^a %"}, {"measurement": "Mean Height Reduction (PH)", "setting": "[2]; 2X (10 g ai./ha)", "result": "20.56 ^a %"}, {"measurement": "Phytotoxicity Index (PI) (0-9)", "setting": "sunflower line B770, WT; 1X (5g ai./ha)", "result": "8.50 ^bc"}, {"measurement": "Dry Matter accumulation (DMA)", "setting": "sunflower line B770, WT; 1X (5g ai./ha), percentage of untreated control", "result": "28.43 ^b %"}, {"measurement": "Phytotoxicity Index (PI) (0-9)", "setting": "sunflower line B770, WT; 2X (10 g ai./ha)", "result": "9.00 ^d"}, {"measurement": "Dry Matter accumulation (DMA)", "setting": "sunflower line B770, WT; [7]", "result": "28.77 ^b %"}, {"measurement": "Mean Height Reduction (PH)", "setting": "sunflower line B770, WT; [7]", "result": "18.20 ^a %"}, {"measurement": "Dry Matter accumulation (DMA)", "setting": "[3]; 1X (5g ai./ha)", "result": "88% and 88.1% and 88.10 ^d %"}, {"measurement": "Plant height, % of untreated control", "setting": "[3]; 1X (5g ai./ha)", "result": "79.01 ^b %"}, {"measurement": "Dry Matter accumulation (DMA)", "setting": "[3]; 2X (10 g ai./ha)", "result": "77% and 76.69 ^c %"}, {"measurement": "Plant height, % of untreated control", "setting": "[3]; 2X (10 g ai./ha)", "result": "80.85 ^c %"}, {"measurement": "Phytotoxicity Index (PI) (0-9)", "setting": "[4]; 1X (5g ai./ha)", "result": "8.70 ^d"}, {"measurement": "Dry Matter accumulation (DMA)", "setting": "[4]; 1X (5g ai./ha)", "result": "30.39 ^b %"}, {"measurement": "Mean Height Reduction (PH)", "setting": "[4]; 1X (5g ai./ha)", "result": "21.55 ^a %"}, {"measurement": "Phytotoxicity Index (PI) (0-9)", "setting": "[4]; 2X (10 g ai./ha)", "result": "9.00 ^d"}, {"measurement": "Dry Matter accumulation (DMA)", "setting": "[4]; 2X (10 g ai./ha)", "result": "20.45 ^a %"}, {"measurement": "Mean Height Reduction (PH)", "setting": "[4]; 2X (10 g ai./ha)", "result": "21.70 ^a %"}, {"measurement": "Phytotoxicity Index (PI) (0-9)", "setting": "[5]; 1X (5g ai./ha)", "result": "9.00 ^d"}, {"measurement": "Dry Matter accumulation (DMA)", "setting": "[5]; 1X (5g ai./ha)", "result": "25.73 ^ab %"}, {"measurement": "Mean Height Reduction (PH)", "setting": "[5]; 1X (5g ai./ha)", "result": "21.39 ^a %"}, {"measurement": "Phytotoxicity Index (PI) (0-9)", "setting": "[5]; 2X (10 g ai./ha)", "result": "9.00 ^d"}, {"measurement": "Dry Matter accumulation (DMA)", "setting": "[5]; 2X (10 g ai./ha)", "result": "20.69 ^a %"}, {"measurement": "Mean Height Reduction (PH)", "setting": "[5]; 2X (10 g ai./ha)", "result": "21.17 ^a %"}, {"measurement": "Phytotoxicity Index (PI) (0-9)", "setting": "[6]; 1X (5g ai./ha)", "result": "8.25 ^b"}, {"measurement": "Dry Matter accumulation (DMA)", "setting": "[6]; 1X (5g ai./ha)", "result": "25.40 ^ab %"}, {"measurement": "Mean Height Reduction (PH)", "setting": "[6]; 1X (5g ai./ha)", "result": "19.47 ^a %"}, {"measurement": "Phytotoxicity Index (PI) (0-9)", "setting": "[6]; 2X (10 g ai./ha)", "result": "8.5 ^c"}, {"measurement": "Dry Matter accumulation (DMA)", "setting": "[6]; 2X (10 g ai./ha)", "result": "18.80 ^a %"}, {"measurement": "Mean Height Reduction (PH)", "setting": "[6]; 2X (10 g ai./ha)", "result": "18.73 ^a %"}]}
